Measured values as given in the NIST ThermoML archive (doi:10.1021/je400472v).

Assay: mean ionic activity coefficient (dimensionless); mn = molality of the nth substance listed, in mol/kg
Conditions: 101 kPa, Liquid

[Cl-].[Cl-].[Sr+2] [strontium chloride] + O
Conditions | mean ionic activity coefficient
283.15 K, m1 = 0.01 | 0.732
283.15 K, m1 = 0.02 | 0.668
283.15 K, m1 = 0.05 | 0.58
283.15 K, m1 = 0.1 | 0.519
283.15 K, m1 = 0.2 | 0.47
283.15 K, m1 = 0.3 | 0.45
293.15 K, m1 = 0.01 | 0.728
293.15 K, m1 = 0.02 | 0.663
293.15 K, m1 = 0.05 | 0.575
293.15 K, m1 = 0.1 | 0.513
293.15 K, m1 = 0.2 | 0.464
293.15 K, m1 = 0.3 | 0.444
298.15 K, m1 = 0.01 | 0.726
298.15 K, m1 = 0.02 | 0.661
298.15 K, m1 = 0.05 | 0.571
298.15 K, m1 = 0.1 | 0.509
298.15 K, m1 = 0.2 | 0.459
298.15 K, m1 = 0.3 | 0.439
298.15 K, m1 = 0.4 | 0.43
298.15 K, m1 = 0.5 | 0.428
298.15 K, m1 = 0.6 | 0.43
298.15 K, m1 = 0.7 | 0.435
298.15 K, m1 = 0.8 | 0.442
298.15 K, m1 = 0.9 | 0.451
298.15 K, m1 = 1 | 0.462
298.15 K, m1 = 1.2 | 0.489
298.15 K, m1 = 1.4 | 0.522
298.15 K, m1 = 1.6 | 0.562
298.15 K, m1 = 1.8 | 0.609
298.15 K, m1 = 2 | 0.665
298.15 K, m1 = 2.5 | 0.849
298.15 K, m1 = 3 | 1.12
298.15 K, m1 = 3.5 | 1.524
298.15 K, m1 = 3.52 | 1.544
303.15 K, m1 = 0.01 | 0.724
303.15 K, m1 = 0.02 | 0.658
303.15 K, m1 = 0.05 | 0.569
303.15 K, m1 = 0.1 | 0.507
303.15 K, m1 = 0.2 | 0.457
303.15 K, m1 = 0.3 | 0.437
313.15 K, m1 = 0.01 | 0.72
313.15 K, m1 = 0.02 | 0.653
313.15 K, m1 = 0.05 | 0.563
313.15 K, m1 = 0.1 | 0.5
313.15 K, m1 = 0.2 | 0.45
313.15 K, m1 = 0.3 | 0.429
323.15 K, m1 = 0.01 | 0.715
323.15 K, m1 = 0.02 | 0.648
323.15 K, m1 = 0.05 | 0.556
323.15 K, m1 = 0.1 | 0.493
323.15 K, m1 = 0.2 | 0.442
323.15 K, m1 = 0.3 | 0.421
333.15 K, m1 = 0.01 | 0.71
333.15 K, m1 = 0.02 | 0.642
333.15 K, m1 = 0.05 | 0.549
333.15 K, m1 = 0.1 | 0.485
333.15 K, m1 = 0.2 | 0.434
333.15 K, m1 = 0.3 | 0.413
